Laboratory results: US11046704B2, “Derivatives of porphyrins, their process of preparation and their use for treating viral infections” (INSTITUT NATIONAL DE LA SANTE ET DE LA RECHERCHE MEDICALE …, priority 2015, dated 2021)

Test system: HIV-1
Experiment: Viral infectivity test on HeLa P4 cells
Format: cell-based
Method: FIG. 2: Effects of G4 ligands compared with AZT on HIV-1 infectivity using the HeLa P4 cell system for studying the replication of HIV-1. The HeLa P4 cells contain a gene lacZ encoding beta-galactosidase under the control of the viral LTR and whose transcription is activated by the viral protein Tat. The cells are incubated with the ligand then infected with HIV-1. After 24 hours the activity of beta-galactosidase, which is proportional to the infectivity of the virus is then measured on a fluorescence plate reader.
C. Cell lines and viruses: HeLa P4 cells encoding a Tat-inducible β-galactosidase were maintained in DMEM medium (Invitrogen) supplemented with 10% inactivated FCS, 1 mg/ml geneticin (G418, Gibco-BRL), gentamycin. MT4 and H9LaI cells were grown in RPMI 1640 glutamax medium (Invitrogen) supplemented with 10% inactivated FCS. HIV-1 viruses were obtained after 48 h co-culture of MT4 cells (0.5×10^6/ml) and H9Laï cells (1×10^6/ml), chronically infected by HIV-1LaI isolate, in RPMI 1640 glutamax medium supplemented with 10% inactivated FCS, at 37° C. under humidified atmosphere and […]. […]
D. Viral infectivity test: The G4 ligands are incubated in presence of the HelaP4 cells 20 minutes before infection. […] After 24 h, the reaction was measured in a fluorescence microplate reader (Cytofluor II, Applied Biosystems) at 360/460 nm Ex/Em.

| Structure (SMILES) | IC50 (24 h of infection, beta-galactosidase readout) [nM] | inhibition of viral replication |
| --- | --- | --- |
| Cc1cn([C@H]2C[C@H](N=[N+]=[N-])[C@@H](CO)O2)c(=O)[nH]c1=O [AZT] | 40 | – |
| C[n+]1ccc(-c2c3nc(c(-c4cc[n+](C)cc4)c4ccc([nH]4)c(-c4cc[n+](C)cc4)c4ccc([nH]4)c(-c4cc[n+](C)cc4)c4nc2C=C4)C=C3)cc1 [Tmpyp4] | – | weak inhibitors of viral replication |
